{
  "source": "paper PMC12679550",
  "about": "(ACS Chemical Neuroscience, 2025)",
  "key": {"[1]": {"details": "male mice, 165 mg/kg PO; cited from earlier work"}, "[2]": {"target": "T1, rat α2AR (Rattus norvegicus, UniProt P22909)", "T1 sequence (P22909 1-465)": "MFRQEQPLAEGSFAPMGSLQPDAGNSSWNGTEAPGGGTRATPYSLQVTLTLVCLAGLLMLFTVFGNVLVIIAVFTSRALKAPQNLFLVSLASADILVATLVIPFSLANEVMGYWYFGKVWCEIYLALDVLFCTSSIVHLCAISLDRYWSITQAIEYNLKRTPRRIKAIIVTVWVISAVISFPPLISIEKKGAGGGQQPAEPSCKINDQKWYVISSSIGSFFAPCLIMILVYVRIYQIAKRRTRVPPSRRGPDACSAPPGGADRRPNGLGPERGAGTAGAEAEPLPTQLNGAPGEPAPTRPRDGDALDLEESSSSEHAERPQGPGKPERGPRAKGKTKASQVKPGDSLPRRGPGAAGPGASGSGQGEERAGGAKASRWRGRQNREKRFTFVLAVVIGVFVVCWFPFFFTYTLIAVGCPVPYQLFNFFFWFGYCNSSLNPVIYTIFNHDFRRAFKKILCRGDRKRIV", "details": "agonist mode; CHO-K1 cells"}, "[3]": {"target": "T2, α2AR (Homo sapiens, UniProt P08913)", "T2 sequence (P08913 1-465)": "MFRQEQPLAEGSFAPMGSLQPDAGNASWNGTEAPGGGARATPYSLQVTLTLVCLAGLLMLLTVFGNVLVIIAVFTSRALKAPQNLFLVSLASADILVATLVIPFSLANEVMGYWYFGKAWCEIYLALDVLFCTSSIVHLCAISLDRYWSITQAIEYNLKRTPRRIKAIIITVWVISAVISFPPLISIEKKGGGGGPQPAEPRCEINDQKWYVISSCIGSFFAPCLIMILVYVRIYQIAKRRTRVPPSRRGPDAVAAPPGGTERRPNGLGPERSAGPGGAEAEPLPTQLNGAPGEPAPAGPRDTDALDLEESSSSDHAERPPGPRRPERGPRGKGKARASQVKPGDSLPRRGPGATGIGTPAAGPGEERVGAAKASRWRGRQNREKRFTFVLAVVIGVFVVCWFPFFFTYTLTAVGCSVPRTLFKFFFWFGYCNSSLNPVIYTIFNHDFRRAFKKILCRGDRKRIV"}, "[4]": {"target": "T3, N-type Ca2+ channels (Rattus norvegicus, UniProt Q02294)", "T3 construct": "Eurofins Cerep (contract screen)", "assay": "Eurofins Cerep radioligand binding screen", "details": "rat cerebral cortex; Figure S6", "method": "(§1) The compounds were screened at each target once, in duplicate, at 100 nM and 10 μM. […] The assay was valid if the reliability criteria, K i or IC50 values within 1/2 Log of historical values, were met. Radioligand binding assay methods were as previously described with only minor modifications , (see table in Supplementary Figure S4 for radioligands, protein sources, and assay test conditions). Briefly, cell membrane homogenates were incubated with either an antagonist or agonist radioligand in the absence or presence of the test compound in a buffer. A specific unlabeled agonist or antagonist at the target determined nonspecific binding. Following incubation, the samples were filtered rapidly under vacuum through glass fiber filters presoaked in a buffer and rinsed several times with an ice-cold buffer using a 48-sample or 96-sample cell harvester. Using a scintillation cocktail, the filters were counted for radioactivity in a scintillation counter. Compound binding was calculated as a percent inhibition of the binding of the radioactively labeled ligand specific for each target. Preparatory methods for enzyme inhibition assays were similar to radioligand binding assays. These assays involved using a known substrate, stimulus, and/or tracer, and detection methods included LANCE, fluorimetry, photometry, luminescence, or scintillation counting (see table in Supplementary Figure S4). Results of the screening assays showing an inhibition or stimulation higher than 50% were designated “hits” and considered to represent significant effects of the test compounds."}, "[5]": {"system": "voltage-gated sodium channels", "assay": "Eurofins Cerep radioligand binding screen", "details": "10 μM", "method": "as §1"}, "[6]": {"target": "T4, D3-dopamine receptors (Homo sapiens, UniProt P35462)", "T4 construct": "Eurofins Cerep; host or cells: cell membrane homogenates", "T4 sequence (P35462 whole entry)": "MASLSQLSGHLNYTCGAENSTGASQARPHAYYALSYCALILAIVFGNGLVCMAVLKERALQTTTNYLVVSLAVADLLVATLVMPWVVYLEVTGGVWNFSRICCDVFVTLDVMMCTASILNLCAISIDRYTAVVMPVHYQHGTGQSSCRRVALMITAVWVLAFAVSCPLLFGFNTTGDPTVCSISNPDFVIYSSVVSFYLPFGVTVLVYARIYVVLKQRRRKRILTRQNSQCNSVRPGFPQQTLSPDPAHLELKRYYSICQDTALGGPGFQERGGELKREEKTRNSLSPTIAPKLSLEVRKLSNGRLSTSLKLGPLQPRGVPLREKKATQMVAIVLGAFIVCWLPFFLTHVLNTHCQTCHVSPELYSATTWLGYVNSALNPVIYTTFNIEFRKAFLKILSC", "assay": "Eurofins Cerep radioligand binding screen", "details": "10 μM", "method": "as §1"}, "[7]": {"target": "T5, hERG potassium channels (Homo sapiens, UniProt Q12809)", "T5 construct": "Eurofins Cerep; host or cells: cell membrane homogenates", "T5 sequence (Q12809 whole entry)": "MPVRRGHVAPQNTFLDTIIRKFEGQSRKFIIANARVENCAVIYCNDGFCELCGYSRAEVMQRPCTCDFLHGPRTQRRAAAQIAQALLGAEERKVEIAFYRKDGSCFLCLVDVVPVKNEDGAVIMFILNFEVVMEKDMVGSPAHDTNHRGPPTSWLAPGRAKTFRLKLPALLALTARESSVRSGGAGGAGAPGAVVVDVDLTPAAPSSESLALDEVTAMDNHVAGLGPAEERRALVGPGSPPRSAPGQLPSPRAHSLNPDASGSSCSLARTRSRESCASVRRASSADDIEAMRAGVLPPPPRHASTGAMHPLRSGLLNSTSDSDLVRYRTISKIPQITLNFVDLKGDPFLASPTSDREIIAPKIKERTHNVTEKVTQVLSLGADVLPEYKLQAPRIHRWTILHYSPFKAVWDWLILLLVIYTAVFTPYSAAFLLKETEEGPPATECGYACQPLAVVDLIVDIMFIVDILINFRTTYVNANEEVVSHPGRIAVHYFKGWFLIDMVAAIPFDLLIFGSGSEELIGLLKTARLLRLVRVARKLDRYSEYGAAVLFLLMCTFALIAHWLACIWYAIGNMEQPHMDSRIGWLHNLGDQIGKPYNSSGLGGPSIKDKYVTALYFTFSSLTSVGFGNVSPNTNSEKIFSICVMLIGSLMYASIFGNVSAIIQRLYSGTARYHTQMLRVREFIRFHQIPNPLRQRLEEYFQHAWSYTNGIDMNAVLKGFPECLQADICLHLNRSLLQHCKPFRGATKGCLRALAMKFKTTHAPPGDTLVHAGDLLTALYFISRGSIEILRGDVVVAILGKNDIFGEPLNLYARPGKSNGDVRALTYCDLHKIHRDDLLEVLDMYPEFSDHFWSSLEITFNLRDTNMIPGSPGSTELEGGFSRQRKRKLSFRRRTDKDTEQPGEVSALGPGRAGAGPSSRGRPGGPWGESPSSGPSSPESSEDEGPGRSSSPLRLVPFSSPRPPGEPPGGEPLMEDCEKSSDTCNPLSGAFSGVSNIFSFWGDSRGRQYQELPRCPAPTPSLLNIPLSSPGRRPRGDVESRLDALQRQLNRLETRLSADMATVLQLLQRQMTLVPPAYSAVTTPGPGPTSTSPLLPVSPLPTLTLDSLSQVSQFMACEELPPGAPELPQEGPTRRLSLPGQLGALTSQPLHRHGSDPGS", "assay": "Eurofins Cerep radioligand binding screen", "details": "10 μM", "method": "as §1"}, "[8]": {"target": "T6, serotonin transporter (Homo sapiens, UniProt P31645)", "T6 construct": "Eurofins Cerep; host or cells: cell membrane homogenates", "T6 sequence (P31645 whole entry)": "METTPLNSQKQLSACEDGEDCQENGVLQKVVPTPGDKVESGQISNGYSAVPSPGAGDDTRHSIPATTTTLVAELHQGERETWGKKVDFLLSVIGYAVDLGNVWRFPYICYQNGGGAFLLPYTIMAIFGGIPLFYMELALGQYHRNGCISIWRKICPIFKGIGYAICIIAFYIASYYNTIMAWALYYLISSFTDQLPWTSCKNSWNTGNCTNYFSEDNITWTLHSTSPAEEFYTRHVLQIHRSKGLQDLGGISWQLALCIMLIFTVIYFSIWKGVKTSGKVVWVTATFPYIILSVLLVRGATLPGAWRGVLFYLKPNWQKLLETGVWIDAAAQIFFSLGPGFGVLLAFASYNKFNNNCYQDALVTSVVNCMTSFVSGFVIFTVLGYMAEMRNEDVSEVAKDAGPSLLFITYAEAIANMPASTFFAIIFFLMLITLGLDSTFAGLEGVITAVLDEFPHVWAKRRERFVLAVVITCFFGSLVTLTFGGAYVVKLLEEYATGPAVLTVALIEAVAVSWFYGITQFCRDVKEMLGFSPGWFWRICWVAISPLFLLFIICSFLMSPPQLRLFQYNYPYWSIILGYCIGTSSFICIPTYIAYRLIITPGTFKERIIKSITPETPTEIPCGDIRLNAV", "assay": "Eurofins Cerep radioligand binding screen", "details": "10 μM", "method": "as §1"}, "[9]": {"target": "T7, D1-dopamine receptors (Homo sapiens, UniProt P21728)", "T7 construct": "Eurofins Cerep; host or cells: cell membrane homogenates", "T7 sequence (P21728 whole entry)": "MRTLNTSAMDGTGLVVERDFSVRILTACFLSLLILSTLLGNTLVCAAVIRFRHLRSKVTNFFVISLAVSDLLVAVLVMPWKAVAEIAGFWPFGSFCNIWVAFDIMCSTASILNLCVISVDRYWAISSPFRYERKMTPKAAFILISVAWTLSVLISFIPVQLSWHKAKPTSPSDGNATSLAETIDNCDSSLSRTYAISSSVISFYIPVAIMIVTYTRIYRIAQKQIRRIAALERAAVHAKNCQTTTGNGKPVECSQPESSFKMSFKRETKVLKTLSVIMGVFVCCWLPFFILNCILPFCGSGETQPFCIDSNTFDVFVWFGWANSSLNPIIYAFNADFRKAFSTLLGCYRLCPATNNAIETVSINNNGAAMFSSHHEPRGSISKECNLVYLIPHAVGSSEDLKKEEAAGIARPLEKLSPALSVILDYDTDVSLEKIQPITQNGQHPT", "assay": "Eurofins Cerep radioligand binding screen", "details": "10 μM", "method": "as §1"}, "[10]": {"system": "L-type Ca2+ channels", "assay": "Eurofins Cerep radioligand binding screen", "details": "rat cerebral cortex; Figure S6", "method": "as §1"}, "[11]": {"target": "T8, D2-dopamine receptors (Homo sapiens, UniProt P14416)", "T8 construct": "Eurofins Cerep; host or cells: cell membrane homogenates", "T8 sequence (P14416 whole entry)": "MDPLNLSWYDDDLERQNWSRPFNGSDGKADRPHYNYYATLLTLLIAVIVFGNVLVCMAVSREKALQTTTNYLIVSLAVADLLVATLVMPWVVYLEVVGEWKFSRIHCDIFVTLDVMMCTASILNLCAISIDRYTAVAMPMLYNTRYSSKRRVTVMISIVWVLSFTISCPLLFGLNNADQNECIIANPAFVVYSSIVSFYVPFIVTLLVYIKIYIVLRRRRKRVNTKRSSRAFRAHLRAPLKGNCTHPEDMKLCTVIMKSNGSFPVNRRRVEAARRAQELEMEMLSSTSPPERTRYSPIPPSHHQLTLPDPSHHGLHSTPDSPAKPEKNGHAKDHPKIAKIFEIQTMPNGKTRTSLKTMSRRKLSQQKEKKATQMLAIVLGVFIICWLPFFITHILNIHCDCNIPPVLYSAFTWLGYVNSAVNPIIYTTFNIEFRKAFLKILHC", "assay": "Eurofins Cerep radioligand binding screen", "details": "10 μM", "method": "as §1"}, "[12]": {"target": "T9, β2-adrenoceptors (Homo sapiens, UniProt P07550)", "T9 construct": "Eurofins Cerep; host or cells: cell membrane homogenates", "assay": "Eurofins Cerep radioligand binding screen", "details": "10 μM", "method": "as §1"}, "[13]": {"system": "pERK in nontransfected HEK293 cells", "assay": "ERK phosphorylation in nontransfected, knockout and antagonist-cotreated HEK293 cells", "type": "cell-based, human", "method": "Cells were serum-starved for 75 min and treated with ligands in 1 mL of fresh DMEM in the absence of serum as described in the figure legends. Cells were washed three times with ice-cold phosphate-buffered saline, lysed on ice in Radio-Immunoprecipitation Assay buffer, centrifuged to clarify the supernatant, normalized to protein concentration, and boiled in Laemmli sample buffer. Following sodium dodecyl sulfate–polyacrylamide gel electrophoresis, gels were transferred, blocked in 5% BSA and incubated with 1:1000 rabbit phospho-ERK1/2 (#9101, Cell Signaling Technology, Danvers, MA) and imaged with enhanced chemiluminescence (ECL). Blots were stripped and reprobed with rabbit ERK1/2 (#9102, Cell Signaling Technology) antibody and imaged with ECL to assess protein loading."}, "[14]": {"target": "T2, α2AR", "remark": "listed apart in the source"}},
  "note": "Several values for one entry are separate records, joined by “and”; a condition that tells them apart may be missing. Identical values can stand only once. Like-named read-outs stand apart in the source and are kept apart here.",
  "data": [
    {"substance": "mitragynine", "values": [
      {"measurement": "Peak brain concentration", "setting": "[1]", "value": "approximately 35 μg/g of wet brain tissue and ~88 μM"},
      {"measurement": "Effect on forskolin-stimulated cAMP, rat α2AR", "setting": "[2]", "value": "did not decrease forskolin-stimulated cAMP accumulation"},
      {"measurement": "Kb", "setting": "[3]; read-out: Kb, antagonist, β-arrestin, antagonist mode vs EC80 (0.01 μM) UK 14,304, Cheng–Prusoff", "value": 5.01, "unit": "µM"},
      {"measurement": "β-arrestin2 recruitment, agonist mode", "setting": "[3]; α2AR-expressing CHO-K1 cells", "value": "did not recruit β-arrestin2"},
      {"measurement": "Affinity at N-type Ca2+ channels", "setting": "[4]", "value": "no appreciable affinity"},
      {"measurement": "Inhibition of radioligand binding, voltage-gated sodium channels", "setting": "[5]", "value": "~71", "unit": "%"},
      {"measurement": "Inhibition of radioligand binding, D3-dopamine receptors", "setting": "[6]", "value": "~57", "unit": "%"},
      {"measurement": "Inhibition of radioligand binding, hERG potassium channels", "setting": "[7]", "value": "~51", "unit": "%"},
      {"measurement": "Inhibition of radioligand binding, serotonin transporter", "setting": "[8]", "value": "~51", "unit": "%"},
      {"measurement": "Inhibition of radioligand binding, D1-dopamine receptors", "setting": "[9]", "value": "~73", "unit": "%"},
      {"measurement": "Affinity at L-type Ca2+ channels", "setting": "[10]", "value": "no appreciable affinity"},
      {"measurement": "Inhibition of radioligand binding, D2-dopamine receptors", "setting": "[11]", "value": "~70", "unit": "%"},
      {"measurement": "Inhibition of specific radioligand binding, β2-adrenoceptors", "setting": "[12]", "value": "> 60", "unit": "%"},
      {"measurement": "pERK-stimulating effect in Gαq/11 knockout HEK293 cells", "setting": "[13]; 1 μM, 5 min, vs CRISPR scrambled", "value": "abolished"},
      {"measurement": "pERK-stimulating effect with 100 nM atipamezole cotreatment", "setting": "[13]; HEK293", "value": "did not affect"},
      {"measurement": "pERK-stimulating effect with 100 nM prazosin cotreatment", "setting": "[13]; HEK293, CLON and ISO 1 μM, mitragynine 1 μM", "value": "abolished"},
      {"measurement": "Effect on forskolin-stimulated cAMP, human α2AR", "setting": "[14]; agonist mode, CHO-K1 cells", "value": "did not impact forskolin-stimulated cAMP accumulation"},
      {"measurement": "Kb", "setting": "[14]; read-out: Kb, antagonist, cAMP, human α2AR, antagonism of clonidine, Gaddum-Schild analysis of first plateau", "value": 4.17, "unit": "µM"}
    ]}
  ]
}
